Measured values: ChEMBL document CHEMBL1131057, “Peptidomimetic growth hormone secretagogues. Design considerations and therapeutic potential” (J Med Chem, 1998)
Where a SMILES comes first, the peptide text is derived from it. [ ]: non-standard residue; d: D form. dTrp(2-Me) = Cc1[nH]c2ccccc2c1C[C@@H](N)C(=O)O; d2Nal = N[C@H](Cc1ccc2ccccc2c1)C(=O)O; GABA = NCCCC(=O)O

Assays:
[1] = Compound was evaluated for half-life in humans; type: ADME, organism-based; settings: human, in vivo
[2] = Half-life was evaluated in rats; type: ADME, organism-based; settings: rat, in vivo
[3] = Clearance rate is evaluated rats; type: ADME, organism-based; settings: rat, in vivo; read-out: Clearance rate
Canis familiaris = experiment: Compound was tested for minimum effective dose in dogs through iv dose; type: functional; settings: Canis lupus familiaris
[4] = Compound was evaluated for oral bioavailability in human; type: ADME, organism-based; settings: in vivo
Rattus norvegicus [5] = experiment: Potency measured in an anesthetized rat model; type: functional, organism-based
Rattus norvegicus [6] = species on record: Rattus norvegicus; experiment: compound was evaluated for GH release in rat; type: functional, organism-based
Rattus norvegicus [7] = species on record: Rattus norvegicus; experiment: compound was evaluated for GH release in the rat pituitary cell culture assay; type: functional; settings: Pituitary gland cell
Rattus norvegicus [8] = species on record: Rattus norvegicus; experiment: compound was evaluated for GH release in the rat; type: functional, organism-based
[9] = Compound was evaluated for the half-life in rats; type: ADME, organism-based; settings: rat, in vivo
[10] = Compound was evaluated for the systemic clearance rate in rats; type: ADME, organism-based; settings: rat, in vivo; read-out: Clearance rate
Rattus norvegicus [11] = experiment: In Vivo efficacy was evaluated for growth hormone release; type: functional, organism-based
Rattus norvegicus [12] = species on record: Rattus norvegicus; experiment: In vitro efficacy was evaluated for growth hormone release
Rattus norvegicus [13] = species on record: Rattus norvegicus; experiment: Compound measured for stimulated GH release; type: functional, organism-based
[14] = molecular target: Growth hormone secretagogue receptor type 1 (Homo sapiens, UniProt Q92847); experiment: Inhibitory concentration (biotinylated probe) is evaluated for [35S]- MK-0677 binding
Chain of Growth hormone secretagogue receptor type 1 (Q92847 whole entry): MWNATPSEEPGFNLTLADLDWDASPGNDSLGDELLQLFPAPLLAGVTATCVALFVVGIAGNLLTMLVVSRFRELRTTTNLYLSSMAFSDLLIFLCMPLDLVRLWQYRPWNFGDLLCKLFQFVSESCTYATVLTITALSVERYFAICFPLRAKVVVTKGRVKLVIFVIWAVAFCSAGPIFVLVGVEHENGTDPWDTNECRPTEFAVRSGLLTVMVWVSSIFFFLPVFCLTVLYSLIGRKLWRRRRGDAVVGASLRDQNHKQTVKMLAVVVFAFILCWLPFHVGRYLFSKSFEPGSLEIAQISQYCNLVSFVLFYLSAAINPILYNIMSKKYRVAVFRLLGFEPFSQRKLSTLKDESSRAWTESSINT

Rattus norvegicus [15] = experiment: Compound was tested for effective dose rquired for GH release following iv administration to 4-week old anesthetized Sprague-Dawley rats; type: functional
[16] = Compound was evaluated percentage of Oral bioavailability in dogs; type: ADME, organism-based, Canis lupus familiaris; settings: dog, in vivo
Rattus norvegicus [17] = species on record: Rattus norvegicus; experiment: Compound was tested for GH releasing from cultured rat pituitary cells (maximal increase in 15 min); type: functional, Pituitary gland cell
[18] = In vitro efficacy was evaluated for growth hormone release
Rattus norvegicus [19] = experiment: Compound was evaluated for GH releasing properties after iv administration to infant rats; type: functional, organism-based
[20] = Compound was evaluated for percentage of Oral bioavailability in rats; type: ADME, organism-based; settings: rat, in vivo, read-out: Bioavailabiility
Rattus norvegicus [21] = species on record: Rattus norvegicus; experiment: In Vitro evaluation for growth hormone release from the pituitary incubates; type: functional

Compound: C[C@H](NC(=O)[C@@H](Cc1c[nH]c2ccccc12)NC(=O)[C@@H](N)Cc1c[nH]cn1)C(=O)N[C@@H](Cc1c[nH]c2ccccc12)C(=O)N[C@H](Cc1ccccc1)C(=O)N[C@@H](CCCCN)C(N)=O (H-H[dW]AW[dF]K-NH2)
- half-life [1]: 20 min
- half-life [2]: 22 min
- clearance [3]: 25 mL/min/kg
- MED (Canis familiaris): 0.01 mg/kg
- bioavailability [4]: 0.3%

Compound: C[C@H](NC(=O)[C@@H](Cc1c[nH]c2ccccc12)NC(=O)[C@@H](N)Cc1c[nH]cn1)C(=O)N[C@@H](Cc1c[nH]c2ccccc12)C(=O)N[C@@H](CN[C@H](CO)CCCCN)Cc1ccccc1
- EC50 (Rattus norvegicus [5]): 0.5 nM

Compound: C[C@H](N)C(=O)N[C@@H](Cc1c[nH]cn1)C(=O)N[C@H](Cc1ccc2ccccc2c1)C(=O)N[C@@H](C)C(=O)N[C@@H](Cc1c[nH]c2ccccc12)C(=O)N[C@H](Cc1ccccc1)C(=O)N[C@@H](CCCCN)C(N)=O (H-AH[d2Nal]AW[dF]K-NH2)
- EC50 (Rattus norvegicus [6]): 6 nM

Compound: CCOC(=O)[C@]1(Cc2ccccc2)CCCN(C(=O)[C@@H](Cc2c[nH]c3ccccc23)NC(=O)C(C)(C)N)C1
- EC50 (Rattus norvegicus [7]): 1.6 nM

Compound: C[C@H](NC(=O)[C@@H](Cc1ccc2ccccc2c1)NC(=O)[C@@H](C)N)C(=O)N[C@@H](Cc1c[nH]c2ccccc12)C(=O)N[C@H](Cc1ccccc1)C(=O)N[C@@H](CCCCN)C(N)=O [PRALMORELIN] (H-[dA][d2Nal]AW[dF]K-NH2)
- EC50 (Rattus norvegicus [8]): 3 nM
- half-life [9]: 9 min
- clearance [10]: 23 mL/min/kg

Compound: CNC(=O)Nc1ccccc1-c1ccc2c(c1)CCN(C(=O)[C@@H](Cc1c[nH]c3ccccc13)NC(=O)C(C)(C)N)C2
- EC50 (Rattus norvegicus [7]): 100 nM

Compound: O=C(NC(Cc1c[nH]c2ccccc12)C(=O)N1CCC2(CCc3ccccc32)CC1)NC1CN2CCC1CC2 (centres undefined) [SPIROPIPERIDINE]
- IC50 (Rattus norvegicus [7]): 50 nM

Compound: CC(C)(N)CC(=O)NC1CCc2ccccc2N(Cc2ccc(-c3ccccc3C(=O)O)cc2)C1=O (centres undefined)
- EC50 (Rattus norvegicus [11]): 3000 nM

Compound: O=C(N[C@H](Cc1ccc2ccccc2c1)C(=O)N[C@@H](CO)Cc1c[nH]c2ccccc12)C1CCNCC1
- EC50 (Rattus norvegicus [7]): 10.6 nM

Compound: C[C@@H](O)CNC(C)(C)CC(=O)N[C@@H]1CCc2ccccc2N(Cc2ccc(-c3ccccc3-c3nn[nH]n3)cc2)C1=O [L-692585]
- EC50 (Rattus norvegicus [12]): 3 nM

Compound: CC(C)(N)C(=O)N[C@H](COCc1ccccc1)C(=O)N1CCC2(CC1)CN(S(=O)(=O)CC(=O)NCCCCCCNC(=O)CCCC[C@@H]1SCC3NC(=O)NC31)c1ccccc12 (some centres undefined)
- EC50 (Rattus norvegicus [13]): 2.5 nM
- IC50 [14]: 0.2 nM

Compound: Cc1ccc(S(=O)(=O)Nc2ccc3c(c2)CCN(C(=O)[C@@H](Cc2c[nH]c4ccccc24)NC(=O)C(C)(C)N)C3)cc1
- EC50 (Rattus norvegicus [7]): 3 nM
- ED50 (Rattus norvegicus [15]): > 10 mg/kg

Compound: CC(C)(N)CC(=O)N[C@@H]1CCc2ccccc2N(Cc2ccc(-c3ccccc3-c3nn[nH]n3)cc2)C1=O
- bioavailability [16]: < 5%
- Max (Rattus norvegicus [17]): 300%
- EC50 [18]: 60 nM

Compound: Cc1[nH]c2ccccc2c1C[C@@H](NC(=O)CCCN)C(=O)N[C@H](Cc1ccc2ccccc2c1)C(=O)N[C@@H](Cc1ccccc1)C(=O)N[C@@H](CCCCN)C(N)=O (H-[GABA][dTrp(2-Me)][d2Nal]FK-NH2)
- Concentration (Rattus norvegicus [19]): 198 ng/mL

Compound: CC(C)(N)C(=O)N[C@H](Cc1c[nH]c2ccccc12)C(=O)N1CCC[C@]2(CC(=O)c3ccccc3O2)C1
- EC50 (Rattus norvegicus [7]): 1.8 nM

Compound: CC(C)(N)CC(=O)N[C@@H]1CCc2c(ccc3ccccc23)N(Cc2ccc(-c3ccccc3-c3nn[nH]n3)cc2)C1=O
- EC50 (Rattus norvegicus [12]): 4 nM
- bioavailability [20]: < 5%

Compound: CSCC[C@@H](NC(=O)[C@H](Cc1ccccc1)NC(=O)CNC(=O)[C@H](Cc1ccccc1)NC(=O)[C@@H](N)Cc1ccc(O)cc1)C(N)=O
- Concentration (Rattus norvegicus [21]): 10 µg/mL

Compound: C[C@@H]1CNC(C)(C)CC(=O)N[C@@H]2CCc3ccccc3N(Cc3ccc(cc3)-c3ccccc3C(=O)NCCCC(=O)O1)C2=O
- EC50 (Rattus norvegicus [7]): 21 nM
